Results: patent US20150344540A1, “NOVEL GLP-1 RECEPTOR AGONISTS WITH CHOLESTEROL EFFLUX ACTIVITY” (NOVO NORDISK A/S, priority 2012, published 2015)
Where two headings read alike, the source gives them in different places. Where a SMILES comes first, the peptide text is derived from it. [ ]: non-standard residue; d: D form. Aib = CC(C)(N)C(=O)O

Key:
[1] = biological target: human GLP-1 receptor (Homo sapiens, UniProt P43220); assay: Functional GLP-1 receptor assay, in vitro potency (CRE luciferase; whole cells); format: cell-based; details: BHK cells expressing human GLP-1 receptor
human GLP-1 receptor, sequence (P43220 24-463): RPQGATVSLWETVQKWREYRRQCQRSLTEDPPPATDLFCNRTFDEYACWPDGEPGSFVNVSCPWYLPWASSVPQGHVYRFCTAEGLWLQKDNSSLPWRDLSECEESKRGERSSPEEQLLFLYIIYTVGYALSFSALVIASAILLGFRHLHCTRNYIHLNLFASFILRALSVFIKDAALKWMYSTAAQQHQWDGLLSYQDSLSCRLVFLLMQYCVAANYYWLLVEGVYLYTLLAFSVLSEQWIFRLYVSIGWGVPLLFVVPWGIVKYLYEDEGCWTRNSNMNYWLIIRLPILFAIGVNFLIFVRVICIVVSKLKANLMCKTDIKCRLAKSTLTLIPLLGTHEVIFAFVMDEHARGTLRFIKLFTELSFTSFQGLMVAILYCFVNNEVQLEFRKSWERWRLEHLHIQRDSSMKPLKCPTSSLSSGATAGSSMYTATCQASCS

[2] = tested on: Mouse monocyte/macrophage cell line, RAW 264.7; assay: Cholesterol efflux assay (3H-cholesterol, macrophage cell line); format: cell-based; details: RAW 264.7, 4 hrs incubation, 0.1% human serum albumin, ABCA1-mediated efflux
[3] = GLP1R CRE luc 1% HSA EC50 Mean Value, 1% HSA
[4] = 0% HSA, read-out: GLP1R CRE luc 0% HSA EC50 Mean Value

Row | Structure (SMILES) | EC50 [1, 3] [nM] | EC50 [1, 4] [nM] | 4 h Cholesterol Efflux Emax [2] [%]
1 | CC[C@H](C)[C@H](NC(=O)[C@H](Cc1ccccc1)NC(=O)[C@H](CCC(=O)O)NC(=O)[C@H](CCCNC(=N)N)NC(=O)[C@@H](NC(=O)[C@H](C)NC(=O)[C@H](CCC(=O)O)NC(=O)[C@H](CCC(=O)O)NC(=O)[C@H](CCC(=O)O)NC(=O)[C@H](CCSC)NC(=O)[C@H](CCC(N)=O)NC(=O)[C@H](CCCCN)NC(=O)[C@H](CO)NC(=O)[C@H](CC(C)C)NC(=O)[C@H](CC(=O)O)NC(=O)[C@H](CO)NC(=O)[C@@H](NC(=O)[C@H](Cc1ccccc1)NC(=O)[C@@H](NC(=O)CNC(=O)[C@H](CCC(=O)O)NC(=O)C(C)(C)NC(=O)[C@@H](N)Cc1c[nH]cn1)[C@@H](C)O)[C@@H](C)O)C(C)C)C(=O)N[C@@H](CCC(=O)O)C(=O)N[C@@H](Cc1c[nH]c2ccccc12)C(=O)N[C@@H](CC(C)C)C(=O)N[C@@H](CCCCN)C(=O)N[C@@H](CC(N)=O)C(=O)N[C@@H](CCCCN)C(=O)NC(C)(C)C(=O)N[C@@H](CC(C)C)C(=O)N[C@@H](CCC(=O)O)C(=O)N[C@@H](CO)C(=O)N[C@@H](CC(C)C)C(=O)N[C@@H](CCC(=O)O)C(=O)N[C@@H](CC(C)C)C(=O)N[C@@H](CC(C)C)C(N)=O [Compound 37, [Aib2,Glu21,Lys29,Aib30,Leu31,Glu32,Leu34,Glu35,Leu36,Leu371-Exendin-4-(1-37)-peptide amide] (H-H[Aib]EGTFTSDLSKQMEEEAVREFIEWLKNK[Aib]LESLELL-NH2; N-terminus assumed) | 0.011 | 0.023 | 102
2 | CC[C@H](C)[C@H](NC(=O)[C@H](Cc1ccccc1)NC(=O)[C@H](CCC(=O)O)NC(=O)[C@H](CCCNC(=N)N)NC(=O)[C@@H](NC(=O)[C@H](C)NC(=O)[C@H](CCC(=O)O)NC(=O)[C@H](CCC(=O)O)NC(=O)[C@H](CCC(=O)O)NC(=O)[C@H](CCSC)NC(=O)[C@H](CCC(N)=O)NC(=O)[C@H](CCCCN)NC(=O)[C@H](CO)NC(=O)[C@H](CC(C)C)NC(=O)[C@H](CC(=O)O)NC(=O)[C@H](CO)NC(=O)[C@@H](NC(=O)[C@H](Cc1ccccc1)NC(=O)[C@@H](NC(=O)CNC(=O)[C@H](CCC(=O)O)NC(=O)C(C)(C)NC(=O)[C@@H](N)Cc1c[nH]cn1)[C@@H](C)O)[C@@H](C)O)C(C)C)C(=O)N[C@@H](CCC(=O)O)C(=O)N[C@@H](Cc1c[nH]c2ccccc12)C(=O)N[C@@H](CC(C)C)C(=O)N[C@@H](CCCCN)C(=O)N[C@@H](CC(N)=O)C(=O)N[C@@H](CCCCN)C(=O)NC(C)(C)C(=O)N[C@@H](CC(C)C)C(=O)N[C@@H](CCC(=O)O)C(=O)N[C@@H](Cc1ccccc1)C(=O)NCC(=O)N[C@@H](CCC(=O)O)C(=O)N[C@@H](CC(C)C)C(=O)N[C@@H](CC(C)C)C(N)=O [Compound 38, [Aib2,Glu21,Lys29,Aib30,Leu31,Glu32,Phe33,Glu35,Leu36,Leu371-Exendin-4-(1-37)-peptide amide] (H-H[Aib]EGTFTSDLSKQMEEEAVREFIEWLKNK[Aib]LEFGELL-NH2; N-terminus assumed) | 0.012 |  | 82
3 | CC[C@H](C)[C@H](NC(=O)[C@H](Cc1ccccc1)NC(=O)[C@H](CCC(=O)O)NC(=O)[C@H](CCCNC(=N)N)NC(=O)[C@@H](NC(=O)[C@H](C)NC(=O)[C@H](CCC(=O)O)NC(=O)[C@H](CCC(=O)O)NC(=O)[C@H](CCC(=O)O)NC(=O)[C@H](CCSC)NC(=O)[C@H](CCC(N)=O)NC(=O)[C@H](CCCCN)NC(=O)[C@H](CO)NC(=O)[C@H](CC(C)C)NC(=O)[C@H](CC(=O)O)NC(=O)[C@H](CO)NC(=O)[C@@H](NC(=O)[C@H](Cc1ccccc1)NC(=O)[C@@H](NC(=O)CNC(=O)[C@H](CCC(=O)O)NC(=O)C(C)(C)NC(=O)[C@@H](N)Cc1c[nH]cn1)[C@@H](C)O)[C@@H](C)O)C(C)C)C(=O)N[C@@H](CCC(=O)O)C(=O)N[C@@H](Cc1c[nH]c2ccccc12)C(=O)N[C@@H](CC(C)C)C(=O)N[C@@H](CCCCN)C(=O)N[C@@H](CC(N)=O)C(=O)N[C@@H](CCCCN)C(=O)NC(C)(C)C(=O)N[C@@H](CC(C)C)C(=O)N[C@@H](CCC(=O)O)C(=O)N[C@@H](Cc1ccccc1)C(=O)N[C@@H](CC(C)C)C(=O)N[C@@H](CCC(=O)O)C(=O)N[C@@H](CC(C)C)C(=O)N1CCC[C@H]1C(N)=O [Compound 40, [Aib2,Glu21,Lys29,Aib30,Leu31,Glu32,Phe33,Leu34,Glu35,Leu361-Exendin-4-(1-37)-peptide amide] (H-H[Aib]EGTFTSDLSKQMEEEAVREFIEWLKNK[Aib]LEFLELP-NH2; N-terminus assumed) | 0.01 | 0.023 | 91

Continued by falling EC50 [1, 3], values first:

Row | EC50 [1, 3] [nM] | EC50 [1, 4] [nM] | Structure (SMILES) | 4 h Cholesterol Efflux Emax [2] [%]
4 | 0.032 |  | CC[C@H](C)[C@H](NC(=O)[C@H](Cc1ccccc1)NC(=O)[C@H](CCC(=O)O)NC(=O)[C@H](CCCNC(=N)N)NC(=O)[C@@H](NC(=O)[C@H](C)NC(=O)[C@H](CCC(=O)O)NC(=O)[C@H](CCC(=O)O)NC(=O)[C@H](CCC(=O)O)NC(=O)[C@H](CCSC)NC(=O)[C@H](CCC(N)=O)NC(=O)[C@H](CCCCN)NC(=O)[C@H](CO)NC(=O)[C@H](CC(C)C)NC(=O)[C@H](CC(=O)O)NC(=O)[C@H](CO)NC(=O)[C@@H](NC(=O)[C@H](Cc1ccccc1)NC(=O)[C@@H](NC(=O)CNC(=O)[C@H](CCC(=O)O)NC(=O)C(C)(C)NC(=O)[C@@H](N)Cc1c[nH]cn1)[C@@H](C)O)[C@@H](C)O)C(C)C)C(=O)N[C@@H](CCC(=O)O)C(=O)N[C@@H](Cc1c[nH]c2ccccc12)C(=O)N[C@@H](CC(C)C)C(=O)N[C@@H](CCCCN)C(=O)N[C@@H](CC(N)=O)C(=O)N[C@@H](CCCCN)C(=O)NC(C)(C)C(=O)N1CCC[C@H]1C(=O)N[C@@H](CCC(=O)O)C(=O)N[C@@H](Cc1ccccc1)C(=O)N[C@@H](CC(C)C)C(=O)N[C@@H](CCC(=O)O)C(=O)N[C@@H](CC(C)C)C(=O)N[C@@H](CC(C)C)C(N)=O [Compound 35, [Aib2,Glu21,Lys29,Aib30,Glu32,Phe33,Leu34,Glu35,Leu36,Leu371-Exendin-4-(1-37)-peptide amide] (H-H[Aib]EGTFTSDLSKQMEEEAVREFIEWLKNK[Aib]PEFLELL-NH2; N-terminus assumed) | 48
5 | 0.013 | 0.032 | CC[C@H](C)[C@H](NC(=O)[C@H](Cc1ccccc1)NC(=O)[C@H](CCC(=O)O)NC(=O)[C@H](CCCNC(=N)N)NC(=O)[C@@H](NC(=O)[C@H](C)NC(=O)[C@H](CCC(=O)O)NC(=O)[C@H](CCC(=O)O)NC(=O)[C@H](CCC(=O)O)NC(=O)[C@H](CCSC)NC(=O)[C@H](CCC(N)=O)NC(=O)[C@H](CCCCN)NC(=O)[C@H](CO)NC(=O)[C@H](CC(C)C)NC(=O)[C@H](CC(=O)O)NC(=O)[C@H](CO)NC(=O)[C@@H](NC(=O)[C@H](Cc1ccccc1)NC(=O)[C@@H](NC(=O)CNC(=O)[C@H](CCC(=O)O)NC(=O)C(C)(C)NC(=O)[C@@H](N)Cc1c[nH]cn1)[C@@H](C)O)[C@@H](C)O)C(C)C)C(=O)N[C@@H](CCC(=O)O)C(=O)N[C@@H](Cc1c[nH]c2ccccc12)C(=O)N[C@@H](CC(C)C)C(=O)N[C@@H](CCCCN)C(=O)N[C@@H](CC(N)=O)C(=O)N[C@@H](CCCCN)C(=O)NC(C)(C)C(=O)N[C@@H](CC(C)C)C(=O)N[C@@H](CCC(=O)O)C(=O)N[C@@H](Cc1ccccc1)C(=O)N[C@@H](CC(C)C)C(=O)N[C@@H](CCC(=O)O)C(=O)N1CCC[C@H]1C(=O)N[C@@H](CC(C)C)C(N)=O [Compound 39, [Aib2,Glu21,Lys29,Aib30,Leu31,Glu32,Phe33,Leu34,Glu35,Leu371-Exendin-4-(1-37)-peptide amide] (H-H[Aib]EGTFTSDLSKQMEEEAVREFIEWLKNK[Aib]LEFLEPL-NH2; N-terminus assumed) | 113
